Experiment [1] addresses T1, rat-intestinal α-glucosidase (mammalian α-glucosidase).
T1 construct: gene Mgam; crude supernatant of sonicated rat-intestinal acetone powder (Sigma); native enzymes, not purified
The experiment is described as follows: p-nitrophenol release from PNPG. It counts as biochemical. The settings on record: PNPG substrate (20 μl of 1 mM added), 50 mM phosphate pH 6.8, 37°C, 5 min pre-incubation, 30 min.

For experiment [2], the system named is T1, rat-intestinal α-glucosidase (mammalian α-glucosidase). The experiment is described as follows: Lineweaver-Burk plot, p-nitrophenol release. It counts as biochemical. The settings on record: no cinnamon extract; 0.5-4 mM PNPG, 37°C, 30 min. The source says: Lineweaver-Burk plot, p-nitrophenol release on rat-intestinal α-glucosidase (mammalian α-glucosidase)

The IC50 is the concentration at which inhibition is half-maximal. In general, Km refers to the concentration of substrate that gives half-maximal velocity.

In brackets after ≈: the same amount, converted by molar mass.

Regarding `C[C@H]1O[C@H](O[C@H]2[C@H](O)[C@@H](O)[C@@H](O[C@H]3[C@H](O)[C@@H](O)C(O)O[C@@H]3CO)O[C@@H]2CO)[C@H](O)[C@@H](O)[C@@H]1N[C@H]1C=C(CO)[C@@H](O)[C@H](O)[C@H]1O` (some centres unmarked) [Acarbose], the IC50 in experiment [1] came to 34.11 µg/mL (≈ 52.8 µM). For the molecule `O=[N+]([O-])c1ccc(O[C@H]2O[C@H](CO)[C@@H](O)[C@H](O)[C@H]2O)cc1` [p-Nitrophenyl-α-D-glucopyranoside], the Km in experiment [2] stood at 850 µM.

The values above are taken from paper PMC3155477, “Cinnamon extract inhibits α-glucosidase activity and dampens postprandial glucose excursion in diabetic rats” (Nutrition & Metabolism, 2011).
